From patent publication US5356903A, “1-cyclopropyl-4-pyridyl-quinolines” (Sterling Winthrop Inc., priority 1993, dated 1994)
Like-named read-outs stand apart in the source and are kept apart here.

Tests used:
human topoisomerase II = target: T1, human topoisomerase II (Homo sapiens, UniProt P11388); assay: Mammalian Topoisomerase II Inhibition Assay (stabilization of DNA-topo II covalent complex); type: biochemical
T1 construct: Topo II was purified from late log phase suspension cultures of HeLa WIS; endogenous in cells; host or cells: HeLa WIS (late log phase suspension cultures); enzyme purified from the cells
T1 sequence (P11388 whole entry): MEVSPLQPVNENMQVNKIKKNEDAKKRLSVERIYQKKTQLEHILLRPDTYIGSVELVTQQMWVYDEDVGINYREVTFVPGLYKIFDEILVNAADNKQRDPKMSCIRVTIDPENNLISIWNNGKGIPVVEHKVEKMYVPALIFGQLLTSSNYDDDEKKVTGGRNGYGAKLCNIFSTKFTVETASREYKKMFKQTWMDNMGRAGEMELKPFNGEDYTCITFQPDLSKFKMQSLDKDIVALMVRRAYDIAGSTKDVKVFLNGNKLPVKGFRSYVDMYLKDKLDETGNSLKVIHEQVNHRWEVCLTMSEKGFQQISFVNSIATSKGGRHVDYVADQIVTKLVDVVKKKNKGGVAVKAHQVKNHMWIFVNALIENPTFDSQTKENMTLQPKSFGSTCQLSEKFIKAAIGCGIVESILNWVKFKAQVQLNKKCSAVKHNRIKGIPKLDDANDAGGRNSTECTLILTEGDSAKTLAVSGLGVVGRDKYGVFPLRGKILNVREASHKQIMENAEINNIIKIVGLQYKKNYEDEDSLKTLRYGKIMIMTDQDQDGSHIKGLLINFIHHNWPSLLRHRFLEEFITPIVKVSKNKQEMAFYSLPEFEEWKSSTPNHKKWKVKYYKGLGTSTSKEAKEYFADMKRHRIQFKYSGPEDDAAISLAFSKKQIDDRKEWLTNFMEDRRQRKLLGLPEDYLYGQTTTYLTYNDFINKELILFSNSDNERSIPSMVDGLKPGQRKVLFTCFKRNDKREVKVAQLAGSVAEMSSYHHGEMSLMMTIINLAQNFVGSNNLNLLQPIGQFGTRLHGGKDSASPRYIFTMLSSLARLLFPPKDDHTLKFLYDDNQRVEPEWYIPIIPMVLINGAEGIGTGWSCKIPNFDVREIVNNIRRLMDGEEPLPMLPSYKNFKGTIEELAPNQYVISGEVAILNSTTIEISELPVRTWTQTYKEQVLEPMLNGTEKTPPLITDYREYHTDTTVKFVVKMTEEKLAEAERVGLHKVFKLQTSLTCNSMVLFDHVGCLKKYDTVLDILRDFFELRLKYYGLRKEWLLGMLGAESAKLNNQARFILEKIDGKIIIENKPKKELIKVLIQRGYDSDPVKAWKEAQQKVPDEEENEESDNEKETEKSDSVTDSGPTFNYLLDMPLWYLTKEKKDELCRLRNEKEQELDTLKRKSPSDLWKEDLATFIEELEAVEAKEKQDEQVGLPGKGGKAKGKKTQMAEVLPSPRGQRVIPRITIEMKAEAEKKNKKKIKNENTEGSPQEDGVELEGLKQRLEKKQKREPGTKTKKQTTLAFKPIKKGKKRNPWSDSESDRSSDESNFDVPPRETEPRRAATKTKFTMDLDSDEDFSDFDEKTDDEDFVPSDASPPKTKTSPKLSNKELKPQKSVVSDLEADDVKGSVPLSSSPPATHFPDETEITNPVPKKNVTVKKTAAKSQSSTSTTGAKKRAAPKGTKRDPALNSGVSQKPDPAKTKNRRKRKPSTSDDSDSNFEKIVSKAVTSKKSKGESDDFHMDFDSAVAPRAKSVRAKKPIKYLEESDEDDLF
Source text: Mammalian Topoisomerase II Inhibition Assay Procedure
The inhibition of human topoisomerase II (hereafter topo II) was quantitated by a procedure adapted from that described by Trask et al., EMBO J., 3, 671-676 (1984). The assay quantitates the amount of topo II covalently complexed by DNA at equilibrium during a topo II reaction. This assay determines the potential of a compound to stabilize this complex, which potential is closely related to the cytotoxicity of several clinically useful antineoplastic agents.
Topo II was purified from late log phase suspension cultures of HeLa WIS by an adaptation of the method described by Per et al., Mol. Pharmacol., 32, 17-25 (1987).
Assays (in duplicate) were assembled at 4° C. Assay mix (25 μl ) was distributed in Beckman (No. 265270) 1.5 mL microtitre tubes followed by the addition of 5 μl test to yield the final concentrations of assay components:
4 ng 3' end labeled (^32 p) pBR322 DNA (10^7 DPM/μg)
The assay mix including the test compound was incubated for 20 minutes at 37° C. The reaction was terminated at 37° C. by the addition of 3 μl 10% SDS followed by the addition of 266 μl 10 mM Tris-Cl pH 7.5, 20 μg/ml calf thymus DNA, 1% SDS.
A SDS/protein precipitate was formed by the addition of 28 μl 2.5M KCl followed by chilling on ice for a minimum of 10 minutes. The precipitate was collected and washed with a Brandell cell harvester on a GFB glass fiber filter membrane as follows. The contents of the assay tube were drawn up into the harvester. The tube was then rinsed 7× with 10 mM Tris-Cl pH 7.5, 1 mM EDTA and 100 mM KCl. The precipitate was washed with 1 L of a solution of 10 mM Tris-Cl pH 7.5, 1 mMEDTA, 100 mM KCl followed by 1 L of 95% ethyl alcohol and finally 0.5 L 70% of ethyl alcohol (per 48 samples in each case). After drying, CPM was determined by liquid scintillation counting with 5 ml Biofluor (NEN Research Products) or Readisafe (Beckman Instruments Inc.) cocktail.
Preparation of test compound--A stock solution (6 mg/ml) of test compound was prepared either in 0.1N sodium hydroxide or 0.2N hydrogen chloride. This solution then was diluted 1/5 into water and serially thereafter in either 0.02N sodium hydroxide or 0.04N hydrogen chloride, respectively. The stock solution and serial dilution of the test compound was stored at -20° C. prior to testing.
Screening of test compound--As an initial screen, the test compound was tested at a final concentration of 2, 20 and 200 μg/ml. The compound was then retested at a range of concentrations (usually 2-3× steps) bridging their approximate EC50 's, as estimated by the prescreen.
Controls--A solvent control which indicates the base level of topo II-DNA complexes formed in the absence of the test compound was included in each test. A control, in which topo II was omitted, was included for each test compound at the highest drug concentration tested.
Reference Agent--A dose response curve with mAMSA at 0.01, 0.08, 0.16, 0.32, 1.0 and 10 μg/ml was included in each test.
Data reduction--The EC50 (effective concentration at which 50% of the maximal DNA-topo II complex is formed) of a test compound is defined to be the concentration with activity equal to the EC50 of the reference agent, mAMSA. The maximal DNA-topo II complex formed is taken as that equal to that formed at the nearly saturating dose of mAMSA (10 μg/ml).
The results obtained for representative compounds of the invention in the human topoisomerase II assay procedure expressed as EC50 s (μM) are presented in Table 3.

[1] = test system: pancreatic ductal adenocarcinoma No. 03 (Panc 03); assay: In vivo antitumor assay, Panc03; design: species or system murine tumor in mice
Source text: (§1) In vivo Antitumor Assay Procedure
(§2) Mice: Inbred: C3H/He and NCR-nu; and Hybrids: B6D2F1 (C57BL/6 females×DBA/2 males, CD2F1 (Balb/c females×DBS/2 males) and B6C3fl (C57BL/6×C3H) were bred at Wayne State University from strains obtained from the Frederick Cancer Research Facility, Frederick, Md. or purchased from commercial suppliers.
Tumors: Murine Tumor: P388 leukemia and pancreatic ductal adenocarcinoma No. 03 (Panc 03) were used for in vivo testing. Human tumor: A single human tumor, mammary carcinoma MX-1 (MX1) was used for in vivo testing. All tumors are in the Developmental Therapeutics Program frozen tumor respository, maintained by the Biological Testing Branch, Frederick, Md. Each has a detailed description, code identification number, and list of references at the National Tumor Repository. Murine tumors were maintained in the mouse strain of origin and were transplanted in the appropriate F1 hydrid (or the strain of orgin) for therapy trials. Human mammary carcinoma MX-1 (MX1) was maintained as a subcutaneous implant in either athymic Swiss (Cr: NIH (S) - nu) or athymic random bred (NCR-nu) mice and transplanted in NCR-nu for therapy trials.
Chemotherapy: For pancreatic ductal adenocarcinoma No. 3, bilateral tumor implants were used to help ensure a more uniform tumor burden per mouse. The animals necessary to begin an experiment were pooled, implanted bilaterally s.c. on day zero with 30-60-mg tumor fragments using a 12-gauge trocar, and again pooled before randomization to the various treatment and control groups. Chemotherapy was started within three days after tumor implantation while the number of cells per mouse was relatively small (1×10^7 -1×10^8 cells).
End Points for Assessing Antitumor Activity
(§3) Quantitative end points used to assess antitumor activity were percent Increased Life Span (% ILS), and Tumor Growth Inhibition (T/C).
(§4) Endpoints were calculated as follows: […]
Tumors were measured with a caliper once or twice weekly (as needed) until either tumors exceeded 1600 mg or cure was assured. Tumor weights were estimated from two dimensional measurements: Tumor Weight (mg)+(a×b^2)/2, where a and b are the tumor length and width (mm) respectively. Measurements were carried out simultaneously in both treatment and control groups. When the control group tumors reached approximately 750-1500 mg in size (median of group), the median tumor weight of each group was determined (including zeros). The T/C value in percent is an indication of antitumor effectiveness. The % T/C was calculated from the following formula for solid murine tumor models: [formula] where T and C are median tumor weights of the treatment and control groups, respectively. A T/C equal to or less than 42% is considered significant antitumor activity. A T/C value<10% is indicative of a high degree of antitumor activity and is the level used by National Cancer Institute to justify further development if other requirements are met (termed DN-2 level activity). By convention the T/C value for the mammary carcinoma MX-1 model is calculated by the parameter of change in tumor weight. The % T/C was calculated from the following formula for the MX-1 model; [formula] where ΔT and ΔC are the change in mean tumor weight of the test and control groups, respectively, and T (initial) is the initial mean tumor weight of the test group. […] A % T/C≤10 is considered significant activity.

P388 leukemia = assay: In vivo antitumor assay, P388 leukemia; design: species or system murine tumor in mice
Source text: as §1, §2
Tumors: Murine Tumor: P388 leukemia and pancreatic ductal adenocarcinoma No. 03 (Panc 03) were used for in vivo testing. Human tumor: A single human tumor, mammary carcinoma MX-1 (MX1) was used for in vivo testing. All tumors are in the Developmental Therapeutics Program frozen tumor respository, maintained by the Biological Testing Branch, Frederick, Md. Each has a detailed description, code identification number, and list of references at the National Tumor Repository. Murine tumors were maintained in the mouse strain of origin and were transplanted in the appropriate F1 hydrid (or the strain of orgin) for therapy trials. Human mammary carcinoma MX-1 (MX1) was maintained as a subcutaneous implant in either athymic Swiss (Cr: NIH (S) - nu) or athymic random bred (NCR-nu) mice and transplanted in NCR-nu for therapy trials. […]
as §3, §4

[2] = test system: mammary carcinoma MX-1 (MX1); assay: In vivo antitumor assay, mammary carcinoma MX-1; design: species or system human tumor in NCR-nu mice; conditions: MX-1, sc tumor/ip drug
Source text: as §1, §2
Tumors: Murine Tumor: P388 leukemia and pancreatic ductal adenocarcinoma No. 03 (Panc 03) were used for in vivo testing. Human tumor: A single human tumor, mammary carcinoma MX-1 (MX1) was used for in vivo testing. All tumors are in the Developmental Therapeutics Program frozen tumor respository, maintained by the Biological Testing Branch, Frederick, Md. […]
as §3, §4
Tumors were measured with a caliper once or twice weekly (as needed) until either tumors exceeded 1600 mg or cure was assured. […] When the control group tumors reached approximately 750-1500 mg in size (median of group), the median tumor weight of each group was determined (including zeros). […] The % T/C was calculated from the following formula for solid murine tumor models: [formula] where T and C are median tumor weights of the treatment and control groups, respectively. […]

[3] = concentration with activity equal to EC50 of mAMSA, 20 min, 37° C, read-out: Topo II EC50
[4] = footnote *: bell shaped dose response, read-out: Topo II EC50 (bell shaped dose response)

Cc1cc(-c2c(F)cc3c(=NN)ccn(C4CC4)c3c2F)cc(C)n1 [Example 1]
EC50 (human topoisomerase II; [3]): 1.7 µM
In vivo antitumor activity, Panc03 ([1]; Panc03, sc tumor/iv drug): Inactive

Cc1cc(-c2c(F)cc3c(=NNc4ccccn4)ccn(C4CC4)c3c2F)cc(C)n1 [Example 2]
EC50 (human topoisomerase II; [3]): 0.98 µM
In vivo antitumor activity, P388 (P388 leukemia; P388, ip tumor/ip drug): Inactive
In vivo antitumor activity, P388 (P388 leukemia; P388, ip tumor/iv drug): Inactive
In vivo antitumor activity, MX-1 [2]: Inactive
% T/C (Tumor Growth Inhibition), Panc03 ([1]; Panc03, sc tumor/iv drug, T/C ≤42% considered significant): 37%

Cc1ccc(S(=O)(=O)N=c2ccn(C3CC3)c3c(F)c(-c4cc(C)nc(C)c4)c(F)cc23)cc1 [Example 3]
EC50 (human topoisomerase II; [4]): 45 µM

Cc1cc(-c2c(F)cc3c(=N)ccn(C4CC4)c3c2F)cc(C)n1 [Example 4]
EC50 (human topoisomerase II; [3]): 12 µM

CC(=O)NN=c1ccn(C2CC2)c2c(F)c(-c3cc(C)nc(C)c3)c(F)cc12 [Example 5]
EC50 (human topoisomerase II; [3]): 20 µM

Cc1cc(-c2c(F)cc3c(=NN4C(=O)c5ccccc5C4=O)ccn(C4CC4)c3c2F)cc(C)n1 [Example 6]
EC50 (human topoisomerase II; [3]): 16 µM

Cc1cc(-c2c(F)cc3c(c2F)N(C2CC2)C=CC3=C(C#N)C#N)cc(C)n1 [Example 7]
EC50 (human topoisomerase II; [4]): 6.3 µM

CCOC(=O)C(C#N)=C1C=CN(C2CC2)c2c1cc(F)c(-c1cc(C)nc(C)c1)c2F [Example 8a]
EC50 (human topoisomerase II; [4]): 4.8 µM

Cc1cc(-c2c(F)cc3c(c2F)N(C2CC2)C=CC3=CC#N)cc(C)n1 [Example 8b]
EC50 (human topoisomerase II; [3]): 4 µM

CNN=c1ccn(C2CC2)c2c(F)c(-c3cc(C)nc(C)c3)c(F)cc12 [Example 9]
EC50 (human topoisomerase II; [3]): 1.9 µM

Cc1cc(-c2c(F)cc3c(=NO)ccn(C4CC4)c3c2F)cc(C)n1 [Example 10]
EC50 (human topoisomerase II; [3]): 1.4 µM
In vivo antitumor activity, Panc03 ([1]; Panc03, sc tumor/iv drug): Inactive

Cc1cc(-c2c(F)cc3c(=NN(C)C)ccn(C4CC4)c3c2F)cc(C)n1 [Example 11]
EC50 (human topoisomerase II; [3]): 2.3 µM

Cc1cc(-c2c(F)cc3c(=NC4CC4)ccn(C4CC4)c3c2F)cc(C)n1 [Example 12]
EC50 (human topoisomerase II; [3]): 2.4 µM
In vivo antitumor activity, Panc03 ([1]; Panc03, sc tumor/iv drug): Inactive

Cc1cc(-c2c(F)cc3c(=NNC(N)=O)ccn(C4CC4)c3c2F)cc(C)n1 [Example 13]
EC50 (human topoisomerase II; [3]): 3.1 µM
In vivo antitumor activity, Panc03 ([1]; Panc03, sc tumor/iv drug): Inactive

Cc1cc(-c2c(F)cc3c(=NNc4c5ccccc5nc5ccccc45)ccn(C4CC4)c3c2F)cc(C)n1 [Example 14]
EC50 (human topoisomerase II; [3]): 28 µM

Cc1cc(-c2c(F)cc3c(=NNCCO)ccn(C4CC4)c3c2F)cc(C)n1 [Example 15]
EC50 (human topoisomerase II; [3]): 3.2 µM

Cc1cc(-c2c(F)cc3c(=NNc4cnc5ccccc5c4)ccn(C4CC4)c3c2F)cc(C)n1 [Example 16]
EC50 (human topoisomerase II; [3]): 92 µM

CON=c1ccn(C2CC2)c2c(F)c(-c3cc(C)nc(C)c3)c(F)cc12 [Example 17]
EC50 (human topoisomerase II; [4]): 2.6 µM

Cc1cc(-c2c(F)cc3c(=NSc4ccc(Cl)cc4)ccn(C4CC4)c3c2F)cc(C)n1 [Example 18]
EC50 (human topoisomerase II; [3]): 9.4 µM

Cc1cc(-c2c(F)cc3c(=NSc4ccccn4)ccn(C4CC4)c3c2F)cc(C)n1 [Example 19]
EC50 (human topoisomerase II; [3]): 3.8 µM

Cc1cc(-c2c(F)cc3c(=NCCN(C)C)ccn(C4CC4)c3c2F)cc(C)n1 [Example 20]
EC50 (human topoisomerase II; [3]): 14 µM

Cc1cc(-c2c(F)cc3c(=NCCCN(C)C)ccn(C4CC4)c3c2F)cc(C)n1 [Example 21]
EC50 (human topoisomerase II; [3]): 5.5 µM

Cc1cc(-c2c(F)cc3c(=Nc4ccccc4)ccn(C4CC4)c3c2F)cc(C)n1 [Example 22]
EC50 (human topoisomerase II; [3]): 1.9 µM

Cc1cc(-c2c(F)cc3c(=Nc4ccccn4)ccn(C4CC4)c3c2F)cc(C)n1 [Example 23]
EC50 (human topoisomerase II; [3]): 3.6 µM

Cc1cc(-c2c(F)cc3c(=Nc4ccccc4O)ccn(C4CC4)c3c2F)cc(C)n1 [Example 24]
EC50 (human topoisomerase II; [3]): 1.6 µM

Cc1cc(-c2c(F)cc3c(=Nc4ccc(N)cc4)ccn(C4CC4)c3c2F)cc(C)n1 [Example 25]
EC50 (human topoisomerase II; [3]): 7.6 µM

Cc1cc(-c2c(F)cc3c(=O)ccn(C4CC4)c3c2F)cc(C)n1 [Int A]
EC50 (human topoisomerase II; [3]): 17 µM
In vivo antitumor activity, Panc03 ([1]; Panc03, route not given): Inactive

Cc1cc(-c2c(F)cc3c(=S)ccn(C4CC4)c3c2F)cc(C)n1 [Int B]
EC50 (human topoisomerase II; footnote E: endpoint of assay extrapolated, read-out: Topo II EC50 (endpoint of assay extrapolated)): 76 µM

CSc1cc[n+](C2CC2)c2c(F)c(-c3cc(C)nc(C)c3)c(F)cc12 [Int C]
EC50 (human topoisomerase II; [3]): 24 µM
